Experimental findings from PMC4938538, “Inhibition of Pig Phosphoenolpyruvate Carboxykinase Isoenzymes by 3-Mercaptopicolinic Acid and Novel Inhibitors” (PLoS ONE, 2016) are described below.

Molecules are shown by their SMILES. Residue numbers refer to the chain shown, from its start. Where “and” joins values, the source holds several entries; their conditions need not be identical. Identical values can stand only once. Entries after “also recorded” stand apart in the source; their conditions may differ. Like-named read-outs stand apart in the source and are kept apart here.

The target in one test is T1, PEPCK-C 139Met (Sus scrofa, UniProt A0A4X1UM84).
T1 sequence (A0A4X1UM84 1-622): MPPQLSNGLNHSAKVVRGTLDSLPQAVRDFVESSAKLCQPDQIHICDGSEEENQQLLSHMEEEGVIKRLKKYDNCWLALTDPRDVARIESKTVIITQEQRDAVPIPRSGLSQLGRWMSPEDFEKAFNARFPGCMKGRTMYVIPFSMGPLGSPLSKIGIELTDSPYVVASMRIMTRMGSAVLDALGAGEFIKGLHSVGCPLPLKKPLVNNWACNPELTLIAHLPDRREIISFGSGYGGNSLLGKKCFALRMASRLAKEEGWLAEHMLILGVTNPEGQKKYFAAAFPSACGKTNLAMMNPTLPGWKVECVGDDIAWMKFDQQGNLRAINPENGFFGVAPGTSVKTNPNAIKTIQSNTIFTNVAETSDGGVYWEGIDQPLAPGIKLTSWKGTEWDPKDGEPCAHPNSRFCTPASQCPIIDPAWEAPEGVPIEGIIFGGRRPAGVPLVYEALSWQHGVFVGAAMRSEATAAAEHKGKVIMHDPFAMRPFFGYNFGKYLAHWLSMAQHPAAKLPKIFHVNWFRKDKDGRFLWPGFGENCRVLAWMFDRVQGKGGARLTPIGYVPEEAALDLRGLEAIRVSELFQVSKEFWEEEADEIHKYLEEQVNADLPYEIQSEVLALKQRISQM
The test is described as follows: 3-MP inhibition kinetics (double reciprocal, secondary and Dixon plots). In kind it is biochemical, pig. Also on record: made in house; host or cells: Escherichia coli BL21 (DE3). The protocol:
(§1) PEPCK-C activity was measured in an UNICAM 500 spectrometer (UNICAM Analytical Systems, UK) with coupled spectrophotometric assays using pyruvate kinase and lactate dehydrogenase as auxiliary enzymes in PEP synthesis reaction and malate dehydrogenase in the reverse reaction.
(§2) 3-MP inhibitions assays in OAA synthesis direction were carried out as described before with the exception of the variable substrate (50–600 μM for PEP and 10–100 μM for GDP) and 3-MP concentration (10–100 μM). Assays in the direction of PEP synthesis were performed in 1 mL of a 100 mM HEPES buffer pH 7.4, containing 10 mM DTT, 0.2 mM MnCl2, 2 mM MgCl2, 1 mM GTP or 400 μM OAA, 1 mM ADP, 0.2 mM NADH, PEPCK-C and 5 units of each pyruvate kinase and lactate dehydrogenase. Reactions were initiated by addition of OAA. Variable substrates were 5–50 μM OAA or 25–500 μM GTP and 3-MP concentrations were between 10–400 μM. Rates were calculated by measuring the decreasing slope at 340 nm of absorbance after subtracting the rate of spontaneous NADH oxidation in the case of OAA synthesis or the rate of the blank which contained all the components of the mix but PEPCK-C in the case of PEP synthesis.
(§3) 3-MP inhibition assays were fitted in double reciprocal plots. To describe the mixed non-competitive inhibition, the double reciprocal equation can be written as: 1/v = Km/Vmax (1+[I]/Ki) 1/[S]+1/Vmax (1+[I]/αKi) (2)
(§4) Ki and αKi are the dissociation constants of the enzyme-inhibitor complex and the enzyme-inhibitor-substrate complex, respectively.
(§5) The equation for the Dixon plot is: 1/v = Km/Vmax[S]+1/Vmax+Km/Vmax[S]Ki (5)

A further test concerns the target T2, PEPCK-C 139Leu (Sus scrofa, UniProt A0A4X1UM84, M139L).
T2 construct: made in house; host or cells: Escherichia coli BL21 (DE3)
T2 sequence (A0A4X1UM84 1-622 M139L): T1 sequence (A0A4X1UM84 1-622) with M139L
The test is described as above. Format: biochemical, pig. The procedure: as §1, §2, §3, §4, §5

With `O=C(O)c1ncccc1S` [3-MP, 3-mercaptopicolinic acid], the “Pattern of inhibition (GDP)” value at PEPCK-C 139Met (139Met, GDP as variable substrate) is “uncompetitive inhibitor”; on PEPCK-C 139Leu (139Leu, GDP as variable substrate) it was “uncompetitive inhibitor”. Besides, the “Pattern of inhibition (GTP)” value at PEPCK-C 139Met (139Met, GTP as variable substrate) is “uncompetitive inhibitor”; on PEPCK-C 139Leu (139Leu, GTP as variable substrate) it was “uncompetitive inhibitor”. The “Pattern of inhibition (OAA)” value at PEPCK-C 139Met (139Met, OAA as variable substrate) is “mixed non-competitive inhibitor; also recorded: Mixed NC”; on PEPCK-C 139Leu (139Leu, OAA as variable substrate), “mixed non-competitive inhibitor; also recorded: Mixed NC”. In addition, the “αKi (OAA)” value at PEPCK-C 139Met (139Met, OAA as variable substrate, PEP synthesis direction) turned out to be 49 ± 18 µM; at PEPCK-C 139Leu (139Leu, OAA as variable substrate, PEP synthesis direction), 21 ± 13 ns μM. In addition, the inhibition constant (Ki) (as a rule, the dissociation constant of the complex between target and ligand, obtained from inhibition or displacement) at PEPCK-C 139Met (139Met, OAA as variable substrate, PEP synthesis direction, read-out: Ki (OAA)) is 18 ± 4 µM; at PEPCK-C 139Met (139Met, PEP as variable substrate, OAA synthesis direction, read-out: Ki (PEP)), 16 ± 2 µM; at PEPCK-C 139Met (139Met, with respect to GDP, Dixon plot, substrates saturating, read-out: Ki (GDP)), 45 ± 3 µM; on PEPCK-C 139Met (139Met, with respect to GTP, Dixon plot, substrates saturating, read-out: Ki (GTP)), 273 ± 68 µM; at PEPCK-C 139Leu (139Leu, OAA as variable substrate, PEP synthesis direction, read-out: Ki (OAA)), 29 ± 1 µM; on PEPCK-C 139Leu (139Leu, PEP as variable substrate, OAA synthesis direction, read-out: Ki (PEP)), 19 ± 4 µM. Also, the Ki turned out to be 45 ± 0.8 µM at PEPCK-C 139Leu (139Leu, with respect to GDP, Dixon plot, substrates saturating, read-out: Ki (GDP)) and 873 ± 144 µM at PEPCK-C 139Leu (139Leu, with respect to GTP, Dixon plot, substrates saturating, read-out: Ki (GTP)). For the same molecule, the “Pattern of inhibition (PEP)” value at PEPCK-C 139Met (139Met, PEP as variable substrate) is “mixed non-competitive inhibitor; also recorded: Mixed NC”; at PEPCK-C 139Leu (139Leu, PEP as variable substrate) it was “mixed non-competitive inhibitor; also recorded: Mixed NC”. For the same molecule, the “αKi (PEP)” value was 20 ± 4 µM at PEPCK-C 139Met (139Met, PEP as variable substrate, OAA synthesis direction); 31 ± 5 μM and 31 ± 5 ns μM on PEPCK-C 139Leu (139Leu, PEP as variable substrate, OAA synthesis direction). Besides, the “Ki fold lower for 139Met than 139Leu (GTP)” value at PEPCK-C 139Met (GTP as variable substrate) stood at 3 fold. On PEPCK-C 139Met (OAA as variable substrate), the “Ki fold lower for 139Met than 139Leu (OAA)” value was determined as 1.6 fold. Besides, at PEPCK-C 139Leu (OAA as variable substrate), the “Ki for 139Leu larger than for 139Met (OAA binding)” value was determined as 50%.
